We go through four molecules from patent US10155259B2 (Merck Sharp & Dohme B.V., priority 2011, dated 2018).

The test concerns the target T1, human FSH receptor (Homo sapiens, UniProt P23945).
T1 construct: expressed in transfected cells; host or cells: CHO cells, stably transfected; cotransfected with CRE-luciferase reporter
T1 sequence (P23945 18-695): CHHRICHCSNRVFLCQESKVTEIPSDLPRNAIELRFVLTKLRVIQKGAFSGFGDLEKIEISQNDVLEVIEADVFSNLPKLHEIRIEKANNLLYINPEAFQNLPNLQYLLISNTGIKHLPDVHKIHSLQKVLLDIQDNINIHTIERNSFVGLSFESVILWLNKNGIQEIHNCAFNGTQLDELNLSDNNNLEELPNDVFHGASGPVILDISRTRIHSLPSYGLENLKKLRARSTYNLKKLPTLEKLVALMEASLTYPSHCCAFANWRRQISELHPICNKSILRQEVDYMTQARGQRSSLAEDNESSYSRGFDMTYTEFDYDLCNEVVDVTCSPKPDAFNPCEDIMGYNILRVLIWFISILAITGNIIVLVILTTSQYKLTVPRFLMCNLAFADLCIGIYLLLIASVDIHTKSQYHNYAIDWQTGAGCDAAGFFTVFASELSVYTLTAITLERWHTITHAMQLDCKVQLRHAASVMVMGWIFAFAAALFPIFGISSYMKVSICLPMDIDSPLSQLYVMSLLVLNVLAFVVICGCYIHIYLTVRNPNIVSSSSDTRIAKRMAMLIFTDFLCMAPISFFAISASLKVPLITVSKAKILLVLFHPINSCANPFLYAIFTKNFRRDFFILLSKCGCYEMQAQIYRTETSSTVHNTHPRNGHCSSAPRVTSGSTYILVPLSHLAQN
Put plainly: Antagonistic activity of compounds at the human FSH receptor expressed in CHO cells (CRE-luciferase reporter). The test is classed as cell-based. As to conditions: CHO cells stably transfected with human FSH receptor and CRE/luciferase reporter; together with 49 μM recFSH; 4 hours incubation; 1% DMSO; read-out: IC50 (concentration of test compound causing half-maximal inhibition of the maximally attainable inhibition of the luciferase stimulation). Summed up:
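Stably transfected CHO cells with a CRE-driven firefly luciferase reporter were co-incubated 4 h at 37 °C with compound (0.316 nM–10.0 μM, duplicate) plus […] recFSH (80% maximal stimulation), 1% DMSO final. Luminescence read after lysis; IC50 and efficacy from inhibition of FSH-induced luciferase signal.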
Background: In a reporter assay the amount or activity of a reporter protein is the signal.
Regarding `COc1cc2c(cc1OC)-c1nc(C(=O)N[C@@H](CO)Cc3c[nH]c4ccccc34)c(-c3cccc(F)c3)n1CC2` [Example 66, (R)-3-(3-fluorophenyl)-N-(1-hydroxy-3-(1H-indol-3-yl)propan-2-yl)-8,9-dimethoxy-5,6-dihydroimidazo[2,1-a]isoquinoline-2-carboxamide], the IC50 fell in the range of 0.1 to 1 µM.

Regarding `COc1cc2c(cc1OC)-c1nc(C(=O)N[C@@H](CO)Cc3c[nH]c4ccccc34)c(-c3ccccc3F)n1CC2` [Example 67, 3-(2-fluorophenyl)-N—((R)-1-hydroxy-3-(1H-indol-3-yl)propan-2-yl)-8,9-dimethoxy-5,6-dihydroimidazo[2,1-a]isoquinoline-2-carboxamide], the IC50 was in the range of 0.1 to 1 µM.

For `COc1cc2c(cc1OC)-c1nc(C(=O)N[C@@H](CO)Cc3c[nH]c4ccccc34)c(-c3ccccc3OC)n1CC2` [Example 68, N—((R)-1-hydroxy-3-(1H-indol-3-yl)propan-2-yl)-8,9-dimethoxy-3-(2-methoxyphenyl)-5,6-dihydroimidazo[2,1-a]isoquinoline-2-carboxamide], the IC50 fell in the range of 0.1 to 1 µM.

On to `COc1ccccc1-c1c(C(=O)N[C@@H](CO)Cc2c[nH]c3ccccc23)nc2n1CCc1cc(OC)c(OC)nc1-2` [Example 70, N—((R)-1-hydroxy-3-(1H-indol-3-yl)propan-2-yl)-8,9-dimethoxy-3-(2-methoxyphenyl)-5,6-dihydroimidazo[1,2-h][1,7]naphthyridine-2-carboxamide], for which the IC50 is below 0.1 µM.
